Where “and” joins values, the source holds several entries; their conditions need not be identical. Equal values may be shown once.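 Dose response: 5 concentrations. Exposure: 48 h. Format: 96-well plates. Endpoint: linear interpolation; highest concentration if not reached. GI50 marks 50% less growth. TGI: total growth inhibition.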
Legend:
Experiment in all cases: NCI-60 cell line screen, 48 h
786-0 renal = system: 786-0 renal
CAKI-1 renal = system: CAKI-1 renal
CCRF-CEM leukemia = system: CCRF-CEM leukemia
COLO 205 colon = system: COLO 205 colon
DLD-1 colon = system: DLD-1 colon
DMS 114 small cell lung = system: DMS 114 small cell lung
DMS 273 small cell lung = system: DMS 273 small cell lung
HCT-116 colon = system: HCT-116 colon
HCT-15 colon = system: HCT-15 colon
HL-60(TB) leukemia = system: HL-60(TB) leukemia
HOP-92 NSCLC = system: HOP-92 NSCLC
HT29 colon = system: HT29 colon
K-562 leukemia = system: K-562 leukemia
KM12 colon = system: KM12 colon
KM20L2 colon = system: KM20L2 colon
LOX IMVI melanoma = system: LOX IMVI melanoma
LXFL 529 NSCLC = system: LXFL 529 NSCLC
M14 melanoma = system: M14 melanoma
M19-MEL melanoma = system: M19-MEL melanoma
MALME-3M melanoma = system: MALME-3M melanoma
MOLT-4 leukemia = system: MOLT-4 leukemia
NCI-H23 lung = system: NCI-H23 lung
NCI-H460 lung = system: NCI-H460 lung
NCI-H522 lung = system: NCI-H522 lung
OVCAR-3 ovarian = system: OVCAR-3 ovarian
OVCAR-4 ovarian = system: OVCAR-4 ovarian
OVCAR-8 ovarian = system: OVCAR-8 ovarian
RPMI-8226 leukemia = system: RPMI-8226 leukemia
RXF 393 renal = system: RXF 393 renal
SF-268 CNS = system: SF-268 CNS
SF-295 CNS = system: SF-295 CNS
SF-539 CNS = system: SF-539 CNS
SK-MEL-28 melanoma = system: SK-MEL-28 melanoma
SK-MEL-5 melanoma = system: SK-MEL-5 melanoma
SN12C renal = system: SN12C renal
SNB-75 CNS = system: SNB-75 CNS
SNB-78 CNS = system: SNB-78 CNS
SW-620 colon = system: SW-620 colon
U251 CNS = system: U251 CNS
UACC-257 melanoma = system: UACC-257 melanoma
UACC-62 melanoma = system: UACC-62 melanoma
XF 498 CNS = system: XF 498 CNS
A498 renal = system: A498 renal
A549 NSCLC = system: A549 NSCLC
ACHN renal = system: ACHN renal
EKVX NSCLC = system: EKVX NSCLC
HCC-2998 colon = system: HCC-2998 colon
HOP-62 NSCLC = system: HOP-62 NSCLC
IGROV1 ovarian = system: IGROV1 ovarian
NCI-H226 lung = system: NCI-H226 lung
OVCAR-5 ovarian = system: OVCAR-5 ovarian
SK-MEL-2 melanoma = system: SK-MEL-2 melanoma
SK-OV-3 ovarian = system: SK-OV-3 ovarian
SNB-19 CNS = system: SNB-19 CNS
TK-10 renal = system: TK-10 renal
UO-31 renal = system: UO-31 renal

For NCCSSC/C=C\CSSCCN, the GI50 (786-0 renal) was 56.4 µM and 27.1 µM, the TGI (786-0 renal) was > 100 µM and 82 µM and the TGI (CAKI-1 renal) was > 100 µM. The TGI (CCRF-CEM leukemia) was 68.6 µM, the GI50 (COLO 205 colon) was 42.7 µM and 18.4 µM and the TGI (COLO 205 colon) was > 100 µM and 34 µM. The GI50 (DLD-1 colon) was 33.8 µM and 15.6 µM, the TGI (DLD-1 colon) was > 100 µM and 34.9 µM and the TGI (DMS 114 small cell lung) was > 95.1 µM and 44 µM. The TGI (DMS 273 small cell lung) was > 100 µM and 60.8 µM, the TGI (HCT-116 colon) was > 100 µM and the TGI (HCT-15 colon) was > 100 µM. For the same compound, the TGI (HL-60(TB) leukemia) was 29.6 µM and 45.7 µM, the TGI (HOP-92 NSCLC) was > 100 µM and the TGI (HT29 colon) was > 100 µM and 58.9 µM. For the same compound, the GI50 (K-562 leukemia) was 6.31 µM and 15.7 µM, the TGI (K-562 leukemia) was 25.4 µM and 40.5 µM and the GI50 (KM12 colon) was 65 µM and 23.4 µM. For the same compound, the TGI (KM12 colon) was > 100 µM and 62 µM, the GI50 (KM20L2 colon) was 76.3 µM and 21.6 µM and the TGI (KM20L2 colon) was > 100 µM and 45 µM. For the same compound, the GI50 (LOX IMVI melanoma) was 26.2 µM and 13 µM, the TGI (LOX IMVI melanoma) was > 59.9 µM and 27.9 µM and the TGI (LXFL 529 NSCLC) was > 67.2 µM and 44.6 µM. For the same compound, the TGI (M14 melanoma) was > 100 µM and 42.5 µM, the TGI (M19-MEL melanoma) was > 100 µM and 95.2 µM and the GI50 (MALME-3M melanoma) was > 40.4 µM and 17.8 µM. For the same compound, the TGI (MALME-3M melanoma) was > 55.8 µM and 78 µM, the TGI (MOLT-4 leukemia) was 65.2 µM and 53.9 µM and the TGI (NCI-H23 lung) was > 100 µM. For the same compound, the GI50 (NCI-H460 lung) was 98.4 µM and 22.2 µM, the TGI (NCI-H460 lung) was > 100 µM and 51.9 µM and the TGI (NCI-H522 lung) was 31.4 µM and 29.1 µM. For the same compound, the GI50 (OVCAR-3 ovarian) was > 68.6 µM and 25.1 µM, the TGI (OVCAR-3 ovarian) was > 100 µM and 67.1 µM and the TGI (OVCAR-4 ovarian) was 77.3 µM and 41.2 µM. For the same compound, the TGI (OVCAR-8 ovarian) was > 69.5 µM and 34.6 µM, the TGI (RPMI-8226 leukemia) was 99.5 µM and 58.8 µM and the TGI (RXF 393 renal) was > 100 µM. The GI50 (SF-268 CNS) was > 64.9 µM and 29.5 µM, the TGI (SF-268 CNS) was > 100 µM and the GI50 (SF-295 CNS) was > 90.3 µM and 27.6 µM. For the same compound, the TGI (SF-295 CNS) was > 100 µM and 80.8 µM, the TGI (SF-539 CNS) was 70.5 µM and 36.5 µM and the GI50 (SK-MEL-28 melanoma) was 56 µM and 24.7 µM. The TGI (SK-MEL-28 melanoma) was > 100 µM and 77.8 µM, the GI50 (SK-MEL-5 melanoma) was > 85.7 µM and 26.9 µM and the TGI (SK-MEL-5 melanoma) was > 100 µM and 77.9 µM. For the same compound, the GI50 (SN12C renal) was 43.5 µM and 19 µM, the TGI (SN12C renal) was > 100 µM and 38 µM and the TGI (SNB-75 CNS) was > 100 µM. For the same compound, the TGI (SNB-78 CNS) was > 100 µM, the TGI (SW-620 colon) was > 64.8 µM and 28.3 µM and the TGI (U251 CNS) was > 100 µM and 67.4 µM. For the same compound, the GI50 (UACC-257 melanoma) was 76.8 µM and 29 µM, the TGI (UACC-257 melanoma) was > 100 µM and the GI50 (UACC-62 melanoma) was 41.2 µM and 20.2 µM. The TGI (UACC-62 melanoma) was > 100 µM and 41.6 µM, the GI50 (XF 498 CNS) was 79.7 µM and 21.6 µM and the TGI (XF 498 CNS) was > 100 µM and 69.5 µM.

For COC(=O)[C@@H]1c2[nH]c3ccccc3c2C[C@@H]2c3ccccc3NC(=O)[C@@H]21, the TGI (786-0 renal) was > 100 µM, the TGI (A498 renal) was > 100 µM and the TGI (A549 NSCLC) was > 100 µM. For the same compound, the TGI (ACHN renal) was > 100 µM, the TGI (CAKI-1 renal) was > 100 µM and the TGI (CCRF-CEM leukemia) was > 100 µM. For the same compound, the TGI (COLO 205 colon) was > 100 µM, the TGI (DLD-1 colon) was > 100 µM and the TGI (DMS 114 small cell lung) was > 100 µM. The TGI (DMS 273 small cell lung) was > 100 µM, the TGI (EKVX NSCLC) was > 100 µM and the TGI (HCC-2998 colon) was > 100 µM. For the same compound, the TGI (HCT-116 colon) was > 100 µM, the TGI (HCT-15 colon) was > 100 µM and the TGI (HL-60(TB) leukemia) was > 100 µM. For the same compound, the TGI (HOP-62 NSCLC) was 54.3 µM, the TGI (HT29 colon) was > 100 µM and the TGI (IGROV1 ovarian) was > 100 µM. The TGI (K-562 leukemia) was > 100 µM, the TGI (KM12 colon) was > 100 µM and the TGI (KM20L2 colon) was > 100 µM. For the same compound, the TGI (LOX IMVI melanoma) was > 100 µM, the TGI (LXFL 529 NSCLC) was > 100 µM and the TGI (M14 melanoma) was > 100 µM. For the same compound, the TGI (M19-MEL melanoma) was > 100 µM, the TGI (MALME-3M melanoma) was > 100 µM and the TGI (MOLT-4 leukemia) was > 100 µM. The TGI (NCI-H226 lung) was > 60.8 µM, the TGI (NCI-H23 lung) was > 100 µM and the TGI (NCI-H460 lung) was > 100 µM. The TGI (NCI-H522 lung) was > 100 µM, the TGI (OVCAR-3 ovarian) was > 100 µM and the TGI (OVCAR-5 ovarian) was > 100 µM. For the same compound, the TGI (OVCAR-8 ovarian) was > 100 µM, the TGI (RPMI-8226 leukemia) was > 100 µM and the TGI (RXF 393 renal) was > 100 µM. The TGI (SF-268 CNS) was > 31.6 µM, the TGI (SF-295 CNS) was > 31.6 µM and the TGI (SF-539 CNS) was > 100 µM. For the same compound, the TGI (SK-MEL-2 melanoma) was > 100 µM, the TGI (SK-MEL-28 melanoma) was > 100 µM and the TGI (SK-MEL-5 melanoma) was > 100 µM. The TGI (SK-OV-3 ovarian) was > 100 µM, the TGI (SN12C renal) was > 100 µM and the TGI (SNB-19 CNS) was > 100 µM. For the same compound, the TGI (SNB-75 CNS) was 60.6 µM, the TGI (SNB-78 CNS) was > 100 µM and the TGI (SW-620 colon) was > 100 µM. For the same compound, the TGI (TK-10 renal) was > 100 µM, the TGI (U251 CNS) was > 100 µM and the TGI (UACC-257 melanoma) was > 100 µM. The TGI (UACC-62 melanoma) was > 100 µM, the TGI (UO-31 renal) was > 100 µM and the TGI (XF 498 CNS) was > 100 µM.
